In patent US7297700B2, “Bicycloheteroaryl compounds as P2X7 modulators and uses thereof” (Renovis, Inc., priority 2005, dated 2007):

Each molecule was assayed on IL-1β release from THP-1 cells (assay: IL-1β Release Assay (Alternate Method), THP-1 cells). Conditions: at 0.3 μM; THP-1 cells.
Type: cell-based, human
Method: THP-1 cells (ATCC Cat #285-IF-100) are plated in 96 well plates at a concentration of 200,000 cells per well and allowed to differentiate in RPMI-1640 media (ATCC Cat #30-2001) containing 10% FBS, 100 IU/mL penicillin, 100 ug/mL streptomycin, 100 ng/mL LPS and 100 ng/mL IFN-γ for 16 hours. Following differentiation, the cells are treated for an additional 2 hours in RPMI-1640 media containing 100 IU/mL penicillin, 100 ug/mL streptomycin and fresh LPS at 100 ng/mL. The cells are then pretreated for 30 minutes with the compound of interest at the appropriate concentration in RPMI media containing 100 IU/mL penicillin, 100 ug/mL streptomycin. Following the pretreatment 2′, 3′-O-(4-benzoylbenzoyl)-adenosine 5′-triphosphate (Sigma Aldrich Cat#B6396) is added to a final concentration of 250 uM and the cells incubated for an additional 45 minutes. 30 uL of cell supernatant is then collected and IL-1β levels determined via ELISA (R&D systems Cat. #HSLB50) according to manufacturer's recommendations using the Tecan Safire plate reader. Background adjusted IL-1β levels of drug treated and non-treated cells are used to calculate the percent inhibition.
For `CC(C)(C(=O)Nc1ncnc2c1CCN(Cc1ccc(F)cc1F)C2)C12CC3CC(CC(C3)C1)C2` [Compound 347], the IL-1β % inhibition was “+ (compound exhibited 0-25% inhibition at 0.3 μM)”. In the case of `O=C(CC12CC3CC(CC(C3)C1)C2)Nc1ncnc2c1CCN(C(=O)c1ccc(C(F)(F)F)cc1)C2` [Compound 243], the IL-1β % inhibition is reported as “+++ (compound exhibited 50-75% inhibition at 0.3 μM)”. With `CC(C)(C(=O)Nc1ncnc2c1CCN(Cc1ccccc1F)C2)C12CC3CC(CC(C3)C1)C2` [Compound 369] the IL-1β % inhibition was “+ (compound exhibited 0-25% inhibition at 0.3 μM)”. For `O=C(CC12CC3CC(CC(C3)C1)C2)Nc1ncnc2c1CCN(C(=O)c1ccc(C(F)(F)F)cc1F)C2` [Compound 266], the IL-1β % inhibition was “+ (compound exhibited 0-25% inhibition at 0.3 μM)”. `O=C(CC12CC3CC(CC(C3)C1)C2)Nc1ncnc2c1CCN(Cc1ccc3c(c1)OCCCO3)C2` [Compound 333] was tested, and the IL-1β % inhibition was “+++ (compound exhibited 50-75% inhibition at 0.3 μM)”. In the case of `O=C(CC12CC3CC(CC(C3)C1)C2)Nc1ncnc2c1CCN(S(=O)(=O)c1ccc(F)cc1Cl)C2` [Compound 211], the IL-1β % inhibition is reported as “+ (compound exhibited 0-25% inhibition at 0.3 μM)”. For `O=C(CC12CC3CC(CC(C3)C1)C2)Nc1ncnc2c1CCN(CC1CCCC1)C2` [Compound 121], the IL-1β % inhibition was “+ (compound exhibited 0-25% inhibition at 0.3 μM)”. With `O=C(CC12CC3CC(CC(C3)C1)C2)Nc1ncnc2c1CCN(Cc1ccc(Cl)c(F)c1)C2` [Compound 329] the IL-1β % inhibition was “+++ (compound exhibited 50-75% inhibition at 0.3 μM)”. In the case of `O=C(CC12CC3CC(CC(C3)C1)C2)Nc1ncnc2c1CCN(S(=O)(=O)Cc1ccc(F)cc1)C2` [Compound 184], the IL-1β % inhibition is reported as “++++ (compound exhibited 75% or greater inhibition at 0.3 μM)”. `O=C(CC12CC3CC(CC(C3)C1)C2)Nc1ncnc2c1CCN(C(=O)c1ccc(F)cc1)C2` [Compound 251] was tested, and the IL-1β % inhibition was “+ (compound exhibited 0-25% inhibition at 0.3 μM)”. `Cc1ccc(C)c(CN2CCc3c(ncnc3NC(=O)CC34CC5CC(CC(C5)C3)C4)C2)c1` [Compound 32] was tested, and the IL-1β % inhibition was “+ (compound exhibited 0-25% inhibition at 0.3 μM)”. With `O=C(CC12CC3CC(CC(C3)C1)C2)Nc1ncnc2c1CCN(Cc1ccc(F)c(F)c1)C2` [Compound 322] the IL-1β % inhibition was “+ (compound exhibited 0-25% inhibition at 0.3 μM)”. `O=C(CC12CC3CC(CC(C3)C1)C2)Nc1ncnc2c1CCN(Cc1ccc(Cl)c(C(F)(F)F)c1)C2` [Compound 325] was tested, and the IL-1β % inhibition was “+ (compound exhibited 0-25% inhibition at 0.3 μM)”. For `CCCS(=O)(=O)N1CCc2c(ncnc2NC(=O)CC23CC4CC(CC(C4)C2)C3)C1` [Compound 147], the IL-1β % inhibition was “++++ (compound exhibited 75% or greater inhibition at 0.3 μM)”. In the case of `O=C(CC12CC3CC(CC(C3)C1)C2)Nc1ncnc2c1CCN(S(=O)(=O)c1ccc(Cl)cc1F)C2` [Compound 202], the IL-1β % inhibition is reported as “++ (compound exhibited 25-50% inhibition at 0.3 μM)”. In the case of `O=C(CC12CC3CC(CC(C3)C1)C2)Nc1ncnc2c1CCN(C(=O)c1cc(C(F)(F)F)ccc1Cl)C2` [Compound 271], the IL-1β % inhibition is reported as “++++ (compound exhibited 75% or greater inhibition at 0.3 μM)”. In the case of `Cn1ccnc1CN1CCc2c(ncnc2NC(=O)CC23CC4CC(CC(C4)C2)C3)C1` [Compound 67], the IL-1β % inhibition is reported as “++ (compound exhibited 25-50% inhibition at 0.3 μM)”. With `Cc1ccccc1CN1CCc2c(ncnc2NC(=O)CC23CC4CC(C)(CC(C)(C4)C2)C3)C1` [Compound 372] the IL-1β % inhibition was “+++ (compound exhibited 50-75% inhibition at 0.3 μM)”. In the case of `O=C(CC12CC3CC(CC(C3)C1)C2)Nc1ncnc2c1CCN(S(=O)(=O)c1cc(F)ccc1F)C2` [Compound 203], the IL-1β % inhibition is reported as “+ (compound exhibited 0-25% inhibition at 0.3 μM)”. With `O=C(NCC12CC3CC(CC(C3)C1)C2)c1ncnc2c1CCN(Cc1ccc(F)cc1)C2` [Compound 338] the IL-1β % inhibition was “++++ (compound exhibited 75% or greater inhibition at 0.3 μM)”. For `N#Cc1ccc(S(=O)(=O)N2CCc3c(ncnc3NC(=O)CC34CC5CC(CC(C5)C3)C4)C2)cc1` [Compound 167], the IL-1β % inhibition was “++ (compound exhibited 25-50% inhibition at 0.3 μM)”. In the case of `O=C(CC12CC3CC(CC(C3)C1)C2)Nc1ncnc2c1CCN(Cc1c(F)cccc1C(F)(F)F)C2` [Compound 111], the IL-1β % inhibition is reported as “++ (compound exhibited 25-50% inhibition at 0.3 μM)”. For `O=C(CC1CCCCCC1)Nc1ncnc2c1CCN(Cc1cccnc1)C2` [Compound 93], the IL-1β % inhibition was “+ (compound exhibited 0-25% inhibition at 0.3 μM)”. For `O=C(CC12CC3CC(CC(C3)C1)C2)Nc1ncnc2c1CCN(S(=O)(=O)Cc1ccc(Cl)cc1)C2` [Compound 189], the IL-1β % inhibition was “++++ (compound exhibited 75% or greater inhibition at 0.3 μM)”. With `O=C(CC12CC3CC(CC(C3)C1)C2)Nc1ncnc2c1CCN(C(=O)c1ccc(OC(F)(F)F)cc1)C2` [Compound 228] the IL-1β % inhibition was “+ (compound exhibited 0-25% inhibition at 0.3 μM)”. For `O=C(CC12CC3CC(CC(C3)C1)C2)Nc1ncnc2c1CCN(C(=O)c1cccc(Cl)c1Cl)C2` [Compound 282], the IL-1β % inhibition was “++++ (compound exhibited 75% or greater inhibition at 0.3 μM)”. With `CC(CC(=O)N1CCc2c(ncnc2NC(=O)CC23CC4CC(CC(C4)C2)C3)C1)CC(C)(C)C` (stereo not shown) [Compound 235] the IL-1β % inhibition was “++++ (compound exhibited 75% or greater inhibition at 0.3 μM)”. For `O=C(CC12CC3CC(CC(C3)C1)C2)Nc1ncnc2c1CCN(Cc1ccccc1Cl)C2` [Compound 27], the IL-1β % inhibition was “+++ (compound exhibited 50-75% inhibition at 0.3 μM)”. For `Cc1nn(-c2ccccc2)nc1C(=O)N1CCc2c(ncnc2NC(=O)CC23CC4CC(CC(C4)C2)C3)C1` [Compound 273], the IL-1β % inhibition was “++++ (compound exhibited 75% or greater inhibition at 0.3 μM)”. `O=C(CC12CC3CC(CC(C3)C1)C2)Nc1ncnc2c1CCN(S(=O)(=O)c1ccc3c(c1)OCCO3)C2` [Compound 200] was tested, and the IL-1β % inhibition was “+ (compound exhibited 0-25% inhibition at 0.3 μM)”. For `COc1ccccc1C(=O)N1CCc2c(ncnc2NC(=O)CC23CC4CC(CC(C4)C2)C3)C1` [Compound 292], the IL-1β % inhibition was “+++ (compound exhibited 50-75% inhibition at 0.3 μM)”.

Same assay, conditions: at 0.3 μM; THP-1 cells, BzATP-stimulated
For `O=C(Nc1ncnc2c1CCN(S(=O)(=O)c1c(F)cccc1F)C2)C12CC3CC(CC(C3)C1)C2` [Compound 540], the IL-1β % inhibition was “+ (compound exhibited 0-25% inhibition at 0.3 μM)”. `O=C(Nc1ncnc2c1CCN(S(=O)(=O)c1cc(Cl)cc(Cl)c1)C2)C12CC3CC(CC(C3)C1)C2` [Compound 542] was tested, and the IL-1β % inhibition was “+ (compound exhibited 0-25% inhibition at 0.3 μM)”. In the case of `O=C(Nc1ncnc2c1CCN(S(=O)(=O)c1ccc(F)c(Cl)c1)C2)C12CC3CC(CC(C3)C1)C2` [Compound 526], the IL-1β % inhibition is reported as “++ (compound exhibited 25-50% inhibition at 0.3 μM)”. In the case of `O=C(c1ccc2ccccc2c1)N1CCc2c(ncnc2NC(=O)C23CC4CC(CC(C4)C2)C3)C1` [Compound 460], the IL-1β % inhibition is reported as “+ (compound exhibited 0-25% inhibition at 0.3 μM)”. With `O=C(Nc1ncnc2c1CCN(S(=O)(=O)c1ccccc1F)C2)C12CC3CC(CC(C3)C1)C2` [Compound 501] the IL-1β % inhibition was “++ (compound exhibited 25-50% inhibition at 0.3 μM)”. With `COc1ccc(Oc2ccc(S(=O)(=O)N3CCc4c(ncnc4NC(=O)C45CC6CC(CC(C6)C4)C5)C3)cc2)cc1` [Compound 509] the IL-1β % inhibition was “+++ (compound exhibited 50-75% inhibition at 0.3 μM)”. With `O=C(Nc1ncnc2c1CCN(S(=O)(=O)c1ccc(OC(F)F)cc1)C2)C12CC3CC(CC(C3)C1)C2` [Compound 523] the IL-1β % inhibition was “+ (compound exhibited 0-25% inhibition at 0.3 μM)”. With `O=C(Nc1ncnc2c1CCN(Cc1cccc(Oc3cccc(C(F)(F)F)c3)c1)C2)C12CC3CC(CC(C3)C1)C2` [Compound 626] the IL-1β % inhibition was “++ (compound exhibited 25-50% inhibition at 0.3 μM)”. `Cc1nn(C)c(C)c1S(=O)(=O)N1CCc2c(ncnc2NC(=O)C23CC4CC(CC(C4)C2)C3)C1` [Compound 531] was tested, and the IL-1β % inhibition was “++ (compound exhibited 25-50% inhibition at 0.3 μM)”. For `O=C(Nc1ncnc2c1CCN(S(=O)(=O)c1ccc(F)cc1F)C2)C12CC3CC(CC(C3)C1)C2` [Compound 543], the IL-1β % inhibition was “++ (compound exhibited 25-50% inhibition at 0.3 μM)”. For `O=C(Nc1ncnc2c1CCN(Cc1ccc3c(c1)OC(F)(F)O3)C2)C12CC3CC(CC(C3)C1)C2` [Compound 627], the IL-1β % inhibition was “++++ (compound exhibited 75% or greater inhibition at 0.3 μM)”. In the case of `COc1cc(CN2CCc3c(ncnc3NC(=O)C34CC5CC(CC(C5)C3)C4)C2)cc(OC)c1` [Compound 633], the IL-1β % inhibition is reported as “+ (compound exhibited 0-25% inhibition at 0.3 μM)”. With `COc1ccc(S(=O)(=O)N2CCc3c(ncnc3NC(=O)C34CC5CC(CC(C5)C3)C4)C2)cc1` [Compound 487] the IL-1β % inhibition was “++ (compound exhibited 25-50% inhibition at 0.3 μM)”. For `O=C(Nc1ncnc2c1CCN(CC1CC1)C2)C12CC3CC(CC(C3)C1)C2` [Compound 557], the IL-1β % inhibition was “+ (compound exhibited 0-25% inhibition at 0.3 μM)”. In the case of `Cc1ccc(S(=O)(=O)N2CCc3c(ncnc3NC(=O)C34CC5CC(CC(C5)C3)C4)C2)cc1Cl` [Compound 541], the IL-1β % inhibition is reported as “++++ (compound exhibited 75% or greater inhibition at 0.3 μM)”. In the case of `O=C(Nc1ncnc2c1CCN(Cc1cccc(OC(F)(F)F)c1)C2)C12CC3CC(CC(C3)C1)C2` [Compound 632], the IL-1β % inhibition is reported as “++ (compound exhibited 25-50% inhibition at 0.3 μM)”. For `O=C(Nc1ncnc2c1CCN(Cc1cccnc1)C2)C12CC3CC(CC(C3)C1)C2` [Compound 560], the IL-1β % inhibition was “++ (compound exhibited 25-50% inhibition at 0.3 μM)”. `O=C(Nc1ncnc2c1CCN(S(=O)(=O)c1ccc(F)cc1Cl)C2)C12CC3CC(CC(C3)C1)C2` [Compound 545] was tested, and the IL-1β % inhibition was “++ (compound exhibited 25-50% inhibition at 0.3 μM)”.
